Here are results for two compounds from patent US7947293B2, “Aqueous pharmaceutical formulation” (Arpida AG, priority 2008, dated 2011).

Common to all, as to assay type: physicochemical
Data set [1] can be described thus: Stability of iclaprim under simulated sterilization conditions at pH<3.5, HPLC. The settings on record: 30% propylene glycol or 10% glycofurol in water. As for the experimental part: Further stability tests of the above standard formulations were performed, wherein the pH was adjusted with citric acid below 3.5 under simulated sterilization conditions, such as 100° C. for 2 h. Vials of 5-[(2RS)-2-cyclopropyl-7,8-dimethoxy-2H-1-benzopyran-5-ylmethyl]-pyrimidine-2,4-diamine methanesulfonic acid salt were prepared in 30% propylene glycol or 10% glycofurol in water. The pH of the so obtained solution was adjusted to pH 3 with 1M citric acid or to pH 1 with 1N hydrochloric acid, and the vials were heated in order to simulate a sterilization process. The analysis of the solutions after completion of the heating step was performed by means of visual examinations and HPLC measurements.

Data set [2] in a line: Stress heating of standard formulation (simulated long term storage), HPLC. The settings on record: 20 mg/mL in 30% propylene glycol in water, normal atmosphere. The protocol: Within the scope of the present invention various standard aqueous formulations of 5-[(2RS)-2-cyclopropyl-7,8-dimethoxy-2H-1-benzopyran-5-ylmethyl]-pyrimidine-2,4-diamine and its acid addition salts were tested for long term stability. For example, vials of 5-[(2RS)-2-cyclopropyl-7,8-dimethoxy-2H-1-benzopyran-5-ylmethyl]-pyrimidine-2,4-diamine methanesulfonic acid salt were prepared in 30% propylene glycol in water at a concentration of iclaprim of 20 mg/mL. In order to examine the stability of the above standard formulations a model system was used to simulate long term storage conditions. In this model system, the solutions to be tested are stress heated at 40° C. and 70° C. for at least 12 days. The analysis of the solutions after completion of the heating step were made by means of methods well known to those skilled in the art such as, for example, HPLC measurements. Vials of 5-[(2RS)-2-cyclopropyl-7,8-dimethoxy-2H-1-benzopyran-5-ylmethyl]-pyrimidine-2,4-diamine methanesulfonic acid salt (20 mg/mL) were prepared in 30% propylene glycol in Millipore water under normal atmosphere. In order to examine the stability of the above formulation a model experiment was developed wherein the solutions to be tested are stress heated. It is well know in the art that by heating a test sample at a temperature higher than room temperature (about 20° C.) such as between 40° C. and 70° C. for a prolonged period of time, long storage conditions can be simulated. The analysis of the solutions after completion of the heating step was made by means of visual examinations and HPLC measurements.

Data set [3] is described as follows: Solubility of iclaprim methanesulfonic acid salt in aqueous/organic solutions, HPLC of supernatant. The note with it: for solubility at 24 h: thermodynamic from solid. As for the experimental part:
A fixed amount of iclaprim mesylate was suspended in the different aqueous/organic solutions. The suspension was stirred at room temperature for 24 hours. The supernatant of the solutions were analyzed by HPLC to determine the amount of iclaprim in the solution.

Each structure is given as a SMILES string. Where two headings read alike, the source gives them in different places.

On to `COc1cc(Cc2cnc(N)nc2N)c2c(c1OC)OC(C1CC1)C=C2` (racemic) [iclaprim, 5-[(2RS)-2-cyclopropyl-7,8-dimethoxy-2H-1-benzopyran-5-ylmethyl]-pyrimidine-2,4-diamine], for which the “% iclaprim” value was 99.0% in data set [1] (1 h, 37° C., pH 1); 60.0% in data set [1] (2 h, 100° C., pH 1); 86.5% in data set [1] (2 h, 100° C., pH 3); 96.3% in data set [1] (3 h, 37° C., pH 1); 99.0% in data set [1] (3 h, 37° C., pH 3); 99.1% in data set [1] (fresh solution, 0 min, about 20° C., pH 4.5 (reference, no pH adjustment)). Also, the “% iclaprim” value in data set [2] (12 days, 40° C.) is on record as 97.0%; in data set [2] (12 days, 70° C.), 90.0%; in data set [2] (45 days, about 20° C.), 97.5%; in data set [2] (fresh solution, 0 min, about 20° C.) it was 99.1%.

Broadly, the solubility is how much of the substance goes into solution per volume. On to `COc1cc(Cc2cnc(N)nc2N)c2c(c1OC)OC(C1CC1)C=C2.CS(=O)(=O)O` (racemic) [iclaprim methanesulfonic acid salt, 5-[(2RS)-2-cyclopropyl-7,8-dimethoxy-2H-1-benzopyran-5-ylmethyl]-pyrimidine-2,4-diamine methanesulfonic acid salt], for which the solubility at 24 h is 7500 µg/mL in data set [3] (10% propylene glycol in saline 0.9%, aqueous with cosolvent or surfactant or cyclodextrin, 10% (saline 0.9%) propylene glycol, room temperature, 24 hours, read-out: Solubility calculated form HPLC measurements); 27800 µg/mL in data set [3] (aqueous with cosolvent or surfactant or cyclodextrin, 10% aqueous propylene glycol, room temperature, 24 hours, read-out: Solubility calculated form HPLC measurements); 1200 µg/mL in data set [3] (saline or isotonic, Saline 0.9%, room temperature, 24 hours, read-out: Solubility calculated form HPLC measurements); 7500 µg/mL in data set [3] (saline solution with reduced propylene glycol, aqueous with cosolvent or surfactant or cyclodextrin, in saline solution, reduced propylene glycol, pH above 4.0, read-out: maximal solubility achieved); 18100 µg/mL in data set [3] (water, room temperature, 24 hours, read-out: Solubility calculated form HPLC measurements). In addition, the “concentration at which precipitation was observed” value in data set [3] (saline solutions, e.g. 10% propylene glycol saline solution) is given as “above 7.5 mg/mL”.
